Assay results reported in publication PMC11111691, “Cystine-knot peptide inhibitors of HTRA1 bind to a cryptic pocket within the active site region” (Nature Communications, 2024).
Positions of bridges follow the written chain, without caps; N, C: chain ends. Residues, ends and D or L forms follow the SMILES beside them.

How the values were obtained:
HTRA4^PD/PDZ-Y200A = target: T1, HTRA4^PD/PDZ-Y200A (Homo sapiens, UniProt P83105, Y200A); assay: H2-OPT enzyme assay, chimeric HTRA4^PD/PDZ-Y200A; type: biochemical; conditions: 1 µM HTRA4^PD/PDZ-Y200A, 10 µM 3B3, H2-OPT; read-out: Inhibition (reduction of enzyme activity) of HTRA4^PD/PDZ-Y200A
T1 construct: HTRA4 (HTRA4^PD/PDZ; G153-N476); made in house; host or cells: E. coli
T1 sequence (P83105 153-476 Y200A): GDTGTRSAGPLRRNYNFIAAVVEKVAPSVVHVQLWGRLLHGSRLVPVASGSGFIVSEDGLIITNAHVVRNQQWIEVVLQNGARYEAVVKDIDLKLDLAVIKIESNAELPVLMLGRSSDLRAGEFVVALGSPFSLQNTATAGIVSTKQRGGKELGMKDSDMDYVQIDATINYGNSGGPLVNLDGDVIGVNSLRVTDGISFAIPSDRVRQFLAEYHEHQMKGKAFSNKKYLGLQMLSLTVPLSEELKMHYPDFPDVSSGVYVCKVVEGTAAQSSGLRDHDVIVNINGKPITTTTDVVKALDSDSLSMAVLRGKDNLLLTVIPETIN
Text: The protease domains of human HTRA1 (HTRA1^PD; D161-K379) and mouse HTRA1 (mHTRA1^PD; D161-K379) contained an N-terminal His6 tag followed by a TEV protease cleavage sequence as described recently. The chimeric HTRA1^PD-A202Y was made by introducing an A202Y mutation to the human HTRA1^PD construct. […] The protease-PDZ domains of human HTRA3 (HTRA3^PD/PDZ; L130-M453) and HTRA4 (HTRA4^PD/PDZ; G153-N476) contained a C-terminal thrombin cleavage sequence followed by a His6 tag[44]. The chimeric HTRA4^PD/PDZ-Y200A was made by introducing a Y200A mutation to the HTRA4^PD/PDZ construct. These constructs were expressed in E. coli and purified as described[38],[44],[47]. […] The purity of the trimeric HTRA proteins after size exclusion chromatography was assessed by SDS-PAGE and LC/MS. […]
Assays with the fluorescence-quenched synthetic substrate Mca-IRRVSYSFK(Dnp)K (H2-OPT)[38],[60] were carried out essentially as described. […] The kinetics of substrate cleavage was measured at 37 °C on a SpectraMax M5 microplate reader with excitation of 328 nm and emission of 393 nm. The determined initial rates of cleavage were expressed as percent of control (DMSO control) after subtracting the baseline rates (without enzyme). IC50 values were determined by Sigmoidal 4PL modeling of multiple data points from serial dilutions of CKPs using Prism 9 software (GraphPad). […]

HTRA1^PD/PDZ = target: T2, HTRA1^PD/PDZ (Homo sapiens, UniProt Q92743); assay: H2-OPT selectivity assay, HTRA1^PD/PDZ; type: biochemical; conditions: 3 nM HTRA1^PD/PDZ, 2 µM CKP (0.5 mM 7mer-ABP), 5 µM H2-OPT
T2 construct: made in house; host or cells: E. coli
Description: Assays with the fluorescence-quenched synthetic substrate Mca-IRRVSYSFK(Dnp)K (H2-OPT)[38],[60] were carried out essentially as described. CKP stock solutions in DMSO were diluted in TNC buffer (dilution series for IC50 determinations, or final concentration of 2 µM for selectivity assay or as indicated for HTRA1/4 mutants) and incubated with enzymes in 96-well black optical bottom plates for 60 min at 37 °C. For selectivity experiments we used the 7mer-ABP as inhibitor, which was incubated with the proteases for 15 min at 37 °C. A 10 mM stock solution of H2-OPT in DMSO was diluted with water, prewarmed at 37 °C and then added to the CKP-enzyme mixtures. The final concentrations in the reaction mixtures were: 1 nM HTRA1^FL, 3 nM HTRA1^PD/PDZ, 1 nM HTRA1^PD, 1 nM HTRA2^PD/PDZ, 3 nM HTRA3^FL, 60 nM HTRA3^PD/PDZ, 6 nM HTRA4^FL, 1 µM HTRA4^PD/PDZ, 1 nM mouse HTRA1^PD, 25 nM HTRA1^PD-A202Y, 1 µM HTRA4^PD/PDZ-Y200A, 0.5 mM 7mer-ABP, 5 µM H2-OPT, and 0.25% DMSO. The kinetics of substrate cleavage was measured at 37 °C on a SpectraMax M5 microplate reader with excitation of 328 nm and emission of 393 nm. The determined initial rates of cleavage were expressed as percent of control (DMSO control) after subtracting the baseline rates (without enzyme). IC50 values were determined by Sigmoidal 4PL modeling of multiple data points from serial dilutions of CKPs using Prism 9 software (GraphPad). […]

T2 sequence (Q92743 161-480): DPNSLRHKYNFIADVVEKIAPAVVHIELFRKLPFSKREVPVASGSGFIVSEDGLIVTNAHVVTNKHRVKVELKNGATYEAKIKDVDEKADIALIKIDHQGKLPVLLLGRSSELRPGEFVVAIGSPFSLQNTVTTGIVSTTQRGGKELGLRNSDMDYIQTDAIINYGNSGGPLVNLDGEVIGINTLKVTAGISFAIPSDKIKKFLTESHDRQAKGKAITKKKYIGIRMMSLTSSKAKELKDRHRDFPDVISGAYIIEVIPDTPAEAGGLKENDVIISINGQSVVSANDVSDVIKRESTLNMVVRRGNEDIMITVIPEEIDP

Row | Molecule | inhibition at 10 µM (HTRA4^PD/PDZ-Y200A) | Inhibition of HTRA1^PD/PDZ, H2-OPT (% of control) (HTRA1^PD/PDZ)
1 | CC[C@H](C)[C@H](NC(=O)[C@@H]1CCCN1C(=O)[C@H](CC(=O)O)NC(=O)[C@H](C)NC(=O)[C@@H](N)Cc1c[nH]cn1)C(=O)N[C@H]1CSSC[C@@H]2NC(=O)[C@H](Cc3ccccc3)NC(=O)[C@H](Cc3c[nH]c4ccccc34)NC(=O)[C@H](C)NC(=O)CNC(=O)[C@H](CO)NC(=O)[C@@H]3CSSC[C@@H](C(=O)NCC(=O)N4CCC[C@H]4C(=O)N[C@@H](Cc4ccc(O)cc4)C(=O)N[C@H](C(=O)NCC(N)=O)C(C)C)NC(=O)[C@H](CO)NC(=O)[C@H](Cc4c[nH]c5ccccc45)NC(=O)[C@H]([C@@H](C)O)NC(=O)[C@H](C)NC(=O)[C@H](Cc4ccc(O)cc4)NC(=O)[C@H](Cc4ccc(O)cc4)NC(=O)[C@H](CSSC[C@H](NC(=O)[C@@H]4CCCN4C(=O)[C@H](CCCCN)NC(=O)[C@H](CC(N)=O)NC1=O)C(=O)N[C@@H](CCCCN)C(=O)N[C@@H]([C@@H](C)O)C(=O)N[C@@H](Cc1c[nH]cn1)C(=O)N[C@@H](CC(=O)O)C(=O)N[C@@H](CC(=O)O)C(=O)N3)NC(=O)[C@H](C)NC(=O)[C@H](CCC(N)=O)NC2=O [3B3] (H-HADPICNKPCKTHDDCSGAWFCQACYYATWSCGPYVG-NH2; disulfide 6-22, 10-25, 16-32) | 57% | –
2 | DPMFKLV-phosphonate [7mer-ABP] | – | significantly inhibited
